Data taken from patent publication US20050101783A1, “N-(heterocycle-methyl)alkylamine derivative, process for producing the same, and bactericide” (priority 2000, published 2005).

Experiments:
Aspergillus fumigatus = assay: Antibacterial test to Aspergillus fumigatus (96-hole plate, IC80); format: cell-based; settings: YNB culture with 0.22% low melting point-agarose, 1×10^4 cell/ml, 25° C., 72 hours, absorbance at 620 nm
Protocol: (Antibacterial Test to Aspergillus fumigatus)
In the test example, a test was performed on the antibacterial of the compounds according to the present invention to Aspergillus fumigatus in the method later described.
Aspergillus fumigatus was cultivated in Sabouraud's agar at 37° C. for 3 days, after the spores to be used for the test were formed, the spore suspension was prepared. The spore suspension was suspended in YNB culture to which a 0.22% low melting point-agarose was added so as to allow the final concentration to be 1×10^4 cell/ml, and the solution was poured into each hole on a 96-hole flat-bottomed plate. Next, the dilution trains using each of the compounds according to the present invention were added, the solution was cultivated at 25° C. for 72 hours, and the propagation rate of the mold was evaluated by measuring the absorbance at 620 nm. With such a test, the propagation rate of the mold in the chemical-free test area was compared with this case to find the concentration of the compound where the propagation rate of the mold is suppressed by 80% as IC 80 (80% growth inhibition concentration).

[1] = test system: Erysiphe graminis f. sp tritici; assay: Preventive effect test of wheat powdery mildew (wettable powder sprayed on potted wheat, preventive value); format: in vivo; settings: wettable powder suspended at 250 mg/l, sprayed on potted wheat at 100 l/10 a; morbidity investigated 9th to 14th day after inoculation
Protocol: (Preventive Effect Test of Erysiphe graminis f. sp […])
The wettable powders obtained by using each compound were diluted with water and were suspended at a predetermined concentration (250 mg/l) and the solution was sprayed over the first to second leaf stage-wheat (variety. Agriculture and Forestry No. 64) cultivated by using a square plastic pot (size: 6.4 cm×6.4 cm) at a rate of 100 1/10 a (are).
After the sprayed leaves were air-dried, the suspension of the spore of Erysiphe graminis f. sp tritici germ sampled from the contracted leaves were sprayed and inoculated over the sprayed leaf after air-dried, the leaves were kept at 20 to 24° C. under a high-humidity condition for 24 hours, then, the leaves were subjected to still standing in a greenhouse (temperature: 20 to 24° C. and relative humidity: 20 to 70 RH). The morbidity rate was investigated based on the following investigation standard on 9th to 14th day after the inoculation and the preventive value was calculated according to the following formula 1.

cucumber gray mold = assay: Preventive effect test of cucumber gray mold (wettable powder sprayed on potted cucumber, preventive value); format: in vivo; settings: wettable powder suspended at 250 mg/l, sprayed on potted cucumber at 100 l/10 a; morbidity investigated 4th to 6th day after inoculation
Protocol: (Preventive Effect Test of Cucumber Gray Mold)
The wettable powders obtained by using each compound were diluted with water and were suspended at a predetermined concentration (250 mg/l) and the solution was sprayed over the first to second leaf stage-cucumber (variety: “Sagamihanpakufushinari”) cultivated by using a square plastic pot (size: 6.4 cm×6.4 cm) at a rate of 100 1/10 a.
After the sprayed leaves were air-dried, a paper disk where the solution of the spore of the gray mold suspended with water was impregnated was put on the aforementioned sprayed leaves, and the leaves were contracted in a glass greenhouse (temperature: 20 to 24° C. and relative humidity: 20 to 70 RH). The morbidity rate was investigated based on the following investigation standard on 4th to 6th day after the inoculation and the preventive value was calculated according to the following formula 2.

cucumber powdery mildew = assay: Preventive effect of cucumber powdery mildew (wettable powder sprayed on potted cucumber, preventive value); format: in vivo; settings: wettable powder suspended at 100 mg/l, sprayed on potted cucumber at 100 l/10 a; morbidity investigated 9th to 14th day after inoculation
Protocol: (Preventive Effect of Cucumber Powdery Mildew)
The wettable powders obtained by using each compound were diluted with water and were suspended at a predetermined concentration (100 mg/l) and the solution was sprayed over the first to second leaf stage-cucumber (variety: “Sagamihanpakufushinari”) cultivated by using a square plastic pot (size: 6.4 cm×6.4 cm) at a rate of 100 1/10 a.
After the sprayed leaves were air-dried, the spore was inoculated over the aforementioned air-dried leaves from the contracted leaves with a brush, and the contraction was performed in a glass greenhouse (temperature: 20 to 24° C. and relative humidity: 20 to 70 RH). The morbidity rate was investigated based on the same investigation standard as that in the preventive effect test of the cucumber gray mold on 9th to 14th day after the inoculation, and the preventive value was calculated according to the aforementioned formula 2.

Botrytis cinerea = assay: Antibacterial test to various phytopathogen, PDA plate culture, suppression of mold elongation; format: cell-based; settings: final concentration 100 mg/l, 1 to 3 days; for inhibition at 100 µg/mL: Botrytis cinerea, read-out: Inhibition Rate of Growth (suppression rate of the mold elongation, 5-step grade) B.c.
Protocol: (§1) (Antibacterial Test to Various Phytopathogen)
(§2) In the test examples, a test was performed on the antibacterial of the compounds according to the present invention to various phytopathogenic molds in the methods later described.
(§3) The compounds of 10 mg were each weighed and they were each dissolved in dimethylsulfoxide of 1 ml. The solution of 0.6 ml was added to PDA culture medium (potato-dextrose-agar culture medium) of 60 ml at about 60° C, the solutions were well mixed in an Erlenmeyer flask of 100 ml, and the solution was poured into a Schale and was solidified therein to prepare a plate culture containing the compound according to the present invention of final concentration of 100 mg/l.
(§4) On the other hand, the sample molds on the plate cultured beforehand were punched by a cork borer of diameter of 4 mm, and they were inoculated on the plate culture containing the aforementioned chemical material. After the inoculation, the molds were inoculated at the appropriate growth temperatures of each mold (for the appropriate growth temperatures, for example, the Reference, LIST OF CULTURE 1996 MICROORGANISM 10th edition published by Institute for Fermentation can be referred to.) for 1 to 3 days, the growth rates of the molds were evaluated by measuring the diameter of a colony. The growth rate of the mold thus obtained on the plate culture containing the chemical material is compared with the growth rate of the mold in the non-addition area of the chemical material to find the suppression rate of the mold elongation by the following formula 3. R=100 (dc−dt)/dc (Formula 3) [wherein, R is the suppression rate of the mold elongation (%), dc is the diameter of a colony on an untreated plate and dt is the diameter of a colony on a chemical-treated plate, respectively.]
(§5) • 5: Mold whose suppression rate of the mold elongation is • 90% or higher • 4: Mold whose suppression rate of the mold elongation is less than 90% and 70% or higher • 3: Mold whose suppression rate of the mold elongation is less than 70% and 40% or higher • 2: Mold whose suppression rate of the mold elongation is less than 40% and 20% or higher • 1: Mold whose suppression rate of the mold elongation is less than 20%
(§6) In addition, the meanings of the abbreviated letters in Table 22 are as follows: • B. c.; Botrytis cinerea • P. h.; Pseudocercosporella herpotrichoides • M. n.; Microdohium nivale • L. n.; Leptosphaeria nodorum

Leptosphaeria nodorum = assay: as above; format: cell-based; settings: final concentration 100 mg/l, 1 to 3 days; for inhibition at 100 µg/mL: Parastagonospora nodorum, read-out: Inhibition Rate of Growth (suppression rate of the mold elongation, 5-step grade) L.n.
Protocol: as §1, §2, §3, §4, §5, §6

Microdohium nivale = assay: as above; format: cell-based; settings: final concentration 100 mg/l, 1 to 3 days; for inhibition at 100 µg/mL: read-out: Inhibition Rate of Growth (suppression rate of the mold elongation, 5-step grade) M.n.
Protocol: as §1, §2, §3, §4, §5, §6

[2] = test system: Pseudocercosporella herpotrichoides; assay: as above; format: cell-based; settings: final concentration 100 mg/l, 1 to 3 days; for inhibition at 100 µg/mL: Oculimacula yallundae, read-out: Inhibition Rate of Growth (suppression rate of the mold elongation, 5-step grade) P.h.
Protocol: as §1, §2, §3, §4, §5, §6

Venturia inaequalis = assay: as above; format: cell-based; settings: final concentration 100 mg/l, 1 to 3 days; for inhibition at 100 µg/mL: Venturia inaequalis, read-out: Inhibition Rate of Growth (suppression rate of the mold elongation, 5-step grade) V.i.
Protocol: as §1, §2, §3, §4, §5
V. i.: Venturia inaequalis

Candida albicans = assay: Antibacterial test to Candida albicans (96-hole plate, IC80); format: cell-based; settings: cultivated at 35° C. for 72 hours, absorbance at 540 nm
Protocol: (Antibacterial Test to Candida albicans) In the test examples, a test was performed on the antibacterial of the compounds according to the present invention to Candida albicans in the methods later described. The culture dilution train containing each compound was prepared by using a 96-hole flat-bottomed plate, and the inoculation mold solution controlled at 1 to 5×10^3 cell/ml beforehand of 10 μl was added to each hole on the plate. After the inoculation, the molds were cultivated at 35° C. for 72 hours, and the propagation of the mold was evaluated by measuring the absorbance at 540 nm. With such a test, the propagation of the mold in this case was compared with the propagation of the mold in the chemical-free test area to find the concentration of a compound where the propagation rate of the mold is suppressed by 80% as IC 80 (80% growth inhibition concentration).

CC(C)(CNCc1ccccn1)Cc1ccc(C(C)(C)C)cc1 [Compound I-1]
80% Growth Inhibition Concentration (IC80) (Aspergillus fumigatus): 5 µg/mL

CC(C)(CNCc1ccc(Cl)nc1)Cc1ccc(OC(F)(F)F)cc1 [Compound I-45, 6-chloro-N-[2,2-dimethyl-3-(4-trifluoromethoxyphenyl)propyl]-3-pyridylmethylamine]
Preventive Value (%) [1]: 100%
Preventive Value (%) (cucumber gray mold): 100%
Preventive Value (%) (cucumber powdery mildew): 100%
inhibition at 100 µg/mL (Botrytis cinerea): ≥ 90%
inhibition at 100 µg/mL (Leptosphaeria nodorum): ≥ 90%
inhibition at 100 µg/mL (Microdohium nivale): ≥ 90%
inhibition at 100 µg/mL [2]: ≥ 90%
inhibition at 100 µg/mL (Venturia inaequalis): ≥ 90%

Cn1cc(CNCC(C)(C)Cc2ccc(F)cc2F)cn1 [Compound I-9]
80% Growth Inhibition Concentration (IC80) (Aspergillus fumigatus): 150 µg/mL

CC(C)(CNCc1ccc(Cl)nc1)Cc1ccc(C(C)(C)C)cc1 [Compound I-2]
Preventive Value (%) [1]: 100%
80% Growth Inhibition Concentration (IC80) (Aspergillus fumigatus): 38 µg/mL

CC(C)(CNCc1ccc(Cl)nc1)Cc1ccccc1Cl [Compound I-3]
80% Growth Inhibition Concentration (IC80) (Aspergillus fumigatus): 9 µg/mL

CC(C)(CNCc1cnccn1)Cc1ccc(C(C)(C)C)cc1 [Compound I-4, N-[3-(4-t-butylphenyl)-2,2-dimethylpropyl]-2-pyrazylmethylamine]
80% Growth Inhibition Concentration (IC80) (Candida albicans): 75 µg/mL
80% Growth Inhibition Concentration (IC80) (Aspergillus fumigatus): 75 µg/mL

CN(Cc1ccc(Cl)nc1)CC(C)(C)Cc1ccc(C(C)(C)C)cc1 [Compound I-18, N-[3-(4-t-butylphenyl)-2,2-dimethylpropyl]-6-chloro-N-methyl-3-pyridylmethylamine]
Preventive Value (%) [1]: 100%
inhibition at 100 µg/mL (Botrytis cinerea): ≥ 90%
inhibition at 100 µg/mL (Leptosphaeria nodorum): ≥ 90%
inhibition at 100 µg/mL (Microdohium nivale): ≥ 90%
inhibition at 100 µg/mL [2]: ≥ 90%
inhibition at 100 µg/mL (Venturia inaequalis): ≥ 90%

CC(CCc1cc(Cl)cc(Cl)c1)CN(C)Cc1ccc(Cl)nc1 (centres unmarked) [Compound I-57]
Preventive Value (%) [1]: 100%
Preventive Value (%) (cucumber powdery mildew): 100%
Inhibition Rate of Growth (suppression rate of the mold elongation, 5-step grade) B.c. (Botrytis cinerea): 5 (Mold whose suppression rate of the mold elongation is • 90% or higher)
Inhibition Rate of Growth (suppression rate of the mold elongation, 5-step grade) L.n. (Leptosphaeria nodorum): 5 (Mold whose suppression rate of the mold elongation is • 90% or higher)
Inhibition Rate of Growth (suppression rate of the mold elongation, 5-step grade) M.n. (Microdohium nivale): 5 (Mold whose suppression rate of the mold elongation is • 90% or higher)
Inhibition Rate of Growth (suppression rate of the mold elongation, 5-step grade) P.h. [2]: 5 (Mold whose suppression rate of the mold elongation is • 90% or higher)
Inhibition Rate of Growth (suppression rate of the mold elongation, 5-step grade) V.i. (Venturia inaequalis): 5 (Mold whose suppression rate of the mold elongation is • 90% or higher)

CC(CCc1cccc(OC(F)(F)F)c1)CN(C)Cc1ccc(Cl)nc1 (centres unmarked) [Compound I-58, 6-chloro-N-[2-methyl-4-(3-trifluoromethoxyphenyl)butyl]-N-methyl-3-pyridylmethylamine]
Preventive Value (%) [1]: 100%
inhibition at 100 µg/mL (Botrytis cinerea): ≥ 90%
inhibition at 100 µg/mL (Leptosphaeria nodorum): ≥ 90%
inhibition at 100 µg/mL (Microdohium nivale): ≥ 90%
inhibition at 100 µg/mL [2]: ≥ 90%
inhibition at 100 µg/mL (Venturia inaequalis): ≥ 90%

CC(C)(CNCc1c[nH]cn1)Cc1ccc(F)cc1F [Compound I-12]
80% Growth Inhibition Concentration (IC80) (Candida albicans): 18 µg/mL

Cn1cc(CNCC(C)(C)Cc2ccccc2F)cn1 [Compound I-7]
80% Growth Inhibition Concentration (IC80) (Aspergillus fumigatus): 150 µg/mL

CC(C)(CNCc1cnc(Cl)cn1)Cc1ccc(C(C)(C)C)cc1 [Compound I-5]
80% Growth Inhibition Concentration (IC80) (Aspergillus fumigatus): 9 µg/mL

CC(C)(CNCc1ccncn1)Cc1ccc(C(C)(C)C)cc1 [Compound I-10]
80% Growth Inhibition Concentration (IC80) (Candida albicans): 75 µg/mL
80% Growth Inhibition Concentration (IC80) (Aspergillus fumigatus): 38 µg/mL

CC(CCc1ccc(OC(F)(F)F)cc1)CN(C)Cc1ccc(Cl)nc1 (centres unmarked) [Compound I-60]
Preventive Value (%) [1]: 100%
Preventive Value (%) (cucumber gray mold): 100%
Inhibition Rate of Growth (suppression rate of the mold elongation, 5-step grade) B.c. (Botrytis cinerea): 5 (Mold whose suppression rate of the mold elongation is • 90% or higher)
Inhibition Rate of Growth (suppression rate of the mold elongation, 5-step grade) L.n. (Leptosphaeria nodorum): 5 (Mold whose suppression rate of the mold elongation is • 90% or higher)
Inhibition Rate of Growth (suppression rate of the mold elongation, 5-step grade) M.n. (Microdohium nivale): 5 (Mold whose suppression rate of the mold elongation is • 90% or higher)
Inhibition Rate of Growth (suppression rate of the mold elongation, 5-step grade) P.h. [2]: 5 (Mold whose suppression rate of the mold elongation is • 90% or higher)
Inhibition Rate of Growth (suppression rate of the mold elongation, 5-step grade) V.i. (Venturia inaequalis): 5 (Mold whose suppression rate of the mold elongation is • 90% or higher)

CC(C)(CNCc1c[nH]cn1)Cc1ccc(C(C)(C)C)cc1 [Compound I-11]
80% Growth Inhibition Concentration (IC80) (Candida albicans): 150 µg/mL
